Earlier results, collected in patent US11844836B2, “Topical pharmaceutical composition based on semifluorinated alkanes” (DERMALIQ THERAPEUTICS, INC., priority 2011, dated 2023).

Details: testosterone as model drug; pig skin; Hardung, Doctoral Thesis 2008, p. 103

CCCCCCCCC(F)(F)C(F)(F)C(F)(F)C(F)(F)C(F)(F)C(F)(F)F [F6H8]
penetration-enhancing effect of the SFA carrier: does not affect an improved penetration into the skin
